For orientation: inhibition means the change of the read-out against control, counted positive when it falls. Higher therefore signals a response far below the control.

The first assay relates to MDA MB 231 cells. Kind of assay: Antiproliferation assay in MDA MB 231 cells (Cell Titer Glo). Format: cell-based. As to conditions: Homo sapiens, MDA-MB-231, 216 h, MDAMB231 cell line, 9 day treatment, racemic compounds (Table 2). How it is done:
Antiproliferation Assay in MDA MB 231 Cells MDA MB 231 cells were seeded in 96 well plate at a seeding density of 250 cells/well. The cells were allowed to settle overnight under standard incubator conditions (37° C., 5% CO2). Next day treatment with increasing dose of test compounds and reference compounds were done to the respective wells and the cells were further incubated under standard cell culture conditions for another 4 days. On the 5th day, media was replenished with fresh treatment and cells were incubated for a total of 9 day treatment period. On the day of termination, appropriate volume of Cell Titer Glo reagent was added to the treatment (and control) wells and the plates were kept on a plate shaker @300 RPM for 15 min. Luminiscence reading (RLU) was […] RLU is directly proportional to ATP content and is directly related to number of metabolically active cells in the respective well. Calculation: a. Blank Correction: RLU of the Wells Containing No Cells is Considered as Blank and Subtracted from all RLU of the Treated and Control Wells [formula]
A general note: Cellular ATP, detected with luciferase, serves as a proxy for viable cell number.
On to `CCC(=O)N1N=C(c2c(C)c3ccsc3[nH]c2=O)CC1c1ccc(OC)cc1` (racemic) [Example 20, 5-(5-(4-Methoxyphenyl)-1-propionyl-4,5-dihydro-1H-pyrazol-3-yl)-4-methylthieno-[2,3-b]pyridin-6(7H)-one], for which the inhibition at 10 µM is ≥ 50%.
Take `CCC(=O)N1N=C(c2c(C)c3ccsc3[nH]c2=O)CC1c1ccc(Cl)cc1` (racemic) [Example 28, 5-(5-(4-chlorophenyl)-1-propionyl-4,5-dihydro-1H-pyrazol-3-yl)-4-methylthieno[2,3-b]pyridin-6(7H)-one]: the inhibition at 10 µM was ≥ 50%.
Turning to `CCC(=O)N1N=C(c2c(C)c3ccsc3[nH]c2=O)CC1c1ccsc1` (racemic) [Example 33, 4-methyl-5-(1-propionyl-5-(thiophen-3-yl)-4,5-dihydro-1H-pyrazol-3-yl)thieno[2,3-b]pyridin-6(7H)-one], the inhibition at 10 µM was < 50%.
The same measure, in the same setting: for `CCC(=O)N1N=C(c2c(C)c3ccsc3[nH]c2=O)CC1c1ccc(C)cc1` (racemic) [Example 37, 4-methyl-5-(1-propionyl-5-(p-tolyl)-4,5-dihydro-1H-pyrazol-3-yl)thieno[2,3-b]pyridin-6(7H)-one] the value was ≥ 50%; for `CCC(=O)N1N=C(c2c(C)c3ccsc3[nH]c2=O)CC1c1ccc(C)nc1` (racemic) [Example 45, 4-methyl-5-(5-(6-methylpyridin-3-yl)-1-propionyl-4,5-dihydro-1H-pyrazol-3-yl)thieno[2,3-b]pyridin-6(7H)-one], ≥ 50%; for `CCC(=O)N1N=C(c2c(C)c3ccccc3[nH]c2=O)CC1c1ccc(C)cc1` (racemic) [Example 60, 4-methyl-3-(1-propionyl-5-(p-tolyl)-4,5-dihydro-1H-pyrazol-3-yl)quinolin-2(1H)-one], ≥ 50%.
On the same count and under the same terms, then `CCC(=O)N1N=C(c2c(C)c3ccsc3[nH]c2=O)CC1c1ccc(C)cc1F` (racemic) [Example 66, 5-(5-(2-fluoro-4-methylphenyl)-1-propionyl-4,5-dihydro-1H-pyrazol-3-yl)-4-methylthieno[2,3-b]pyridin-6(7H)-one], with ≥ 50%; and `CCC(=O)N1N=C(c2c(C)c3ccncc3[nH]c2=O)CC1c1ccc(C)cc1` (racemic) [Example 74, 4-methyl-3-(1-propionyl-5-(p-tolyl)-4,5-dihydro-1H-pyrazol-3-yl)-1,7-naphthyridin-2(1H)-one], with ≥ 50%.
The same measure, in the same setting: for `CCC(=O)N1N=C(c2c(C)c3ccnc(C)c3[nH]c2=O)CC1c1ccc(C)cc1` (racemic) [Example 78, 4,8-dimethyl-3-(1-propionyl-5-(p-tolyl)-4,5-dihydro-1H-pyrazol-3-yl)-1,7-naphthyridin-2(1H)-one] the value was ≥ 50%.
For the compound `CCC(=O)N1N=C(c2c(C)c3ccc(Cl)cc3[nH]c2=O)CC1c1ccc(C)cc1` (racemic) [Example 80, 7-chloro-4-methyl-3-(1-propionyl-5-(p-tolyl)-4,5-dihydro-1H-pyrazol-3-yl)quinolin-2(1H)-one], the inhibition at 10 µM is ≥ 50%.
On the same count and under the same terms, then `CCC(=O)N1N=C(c2c(C)c3ccc(N4CCN(C)CC4)cc3[nH]c2=O)CC1c1ccc(C)cc1` (racemic) [Example 82, 4-methyl-7-(4-methylpiperazin-1-yl)-3-(1-propionyl-5-(p-tolyl)-4,5-dihydro-1H-pyrazol-3-yl)quinolin-2(1H)-one], with ≥ 50%; and `CCC(=O)N1N=C(c2c(C)c3cc(Cl)ccc3[nH]c2=O)CC1c1ccc(OC)cc1` (stereo not drawn) [Example 1, 6-Chloro-3-(5-(4-methoxyphenyl)-1-propionyl-4,5-dihydro-1H-pyrazol-3-yl)-4-methylquinolin-2(1H)-one], with ≥ 50%; and `COc1ccc(C2CC(c3c(C)c4cc(Cl)ccc4[nH]c3=O)=NN2C(=O)C2CC2)cc1` (stereo not drawn) [Example 2, 6-Chloro-3-(1-(cyclopropanecarbonyl)-5-(4-methoxyphenyl)-4,5-dihydro-1H-pyrazol-3-yl)-4-methylquinolin-2(1H)-one], with ≥ 50%.
As for `COc1ccc(C2CC(c3c(C)c4cc(Cl)ccc4[nH]c3=O)=NN2C(=O)C2CCOCC2)cc1` (stereo not drawn) [Example 3, 6-chloro-3-(5-(4-methoxyphenyl)-1-(tetrahydro-2H-pyran-4-carbonyl)-4,5-dihydro-1H-pyrazol-3-yl)-4-methylquinolin-2(1H)-one], the inhibition at 10 µM was ≥ 50%.
`COc1ccc(C2CC(c3c(C)c4cc(Cl)ccc4[nH]c3=O)=NN2C(=O)C2CCOC2)cc1` (stereo not drawn) [Example 4, 6-chloro-3-(5-(4-methoxyphenyl)-1-(tetrahydrofuran-3-carbonyl)-4,5-dihydro-1H-pyrazol-3-yl)-4-methylquinolin-2(1H)-one]: the inhibition at 10 µM is ≥ 50%.
`COc1ccc(C2CC(c3c(C)c4cc(Cl)ccc4[nH]c3=O)=NN2C)cc1` (stereo not drawn) [Example 5, 6-Chloro-3-(5-(4-methoxyphenyl)-1-methyl-4,5-dihydro-1H-pyrazol-3-yl)-4-methylquinolin-2(1H)-one]: the inhibition at 10 µM was < 50%.
Still for that read-out and setting: then `CCC(=O)N1N=C(c2c(C)c3cc(Cl)ccc3[nH]c2=O)CC1c1ccc2ccn(C)c2c1` (stereo not drawn) [Example 6, 6-Chloro-4-methyl-3-(5-(1-methyl-1H-indol-6-yl)-1-propionyl-4,5-dihydro-1H-pyrazol-3-yl)quinolin-2(1H)-one], with ≥ 50%.
Regarding `CCC(=O)N1N=C(c2c(C)c3cc(Cl)ccc3[nH]c2=O)CC1c1ccc(OC)nc1` (stereo not drawn) [Example 7, 6-chloro-3-(5-(6-methoxypyridin-3-yl)-1-propionyl-4,5-dihydro-1H-pyrazol-3-yl)-4-methylquinolin-2(1H)-one], the inhibition at 10 µM was ≥ 50%.
Same read-out and setting: for `CCC(=O)Nc1ccc(C2CC(c3c(C)c4cc(Cl)ccc4[nH]c3=O)=NN2C(=O)CC)cc1` (stereo not drawn) [Example 8, N-(4-(3-(6-chloro-4-methyl-2-oxo-1,2-dihydroquinolin-3-yl)-1-propionyl-4,5-dihydro-1H-pyrazol-5-yl)phenyl)propionamide] the value was ≥ 50%; for `CCC(=O)N1N=C(c2c(C)c3ncccc3[nH]c2=O)CC1c1ccc(OC)cc1` (stereo not drawn) [Example 9, 3-(5-(4-Methoxyphenyl)-1-propionyl-4,5-dihydro-1H-pyrazol-3-yl)-4-methyl-1,5-naphthyridin-2(1H)-one], < 50%; for `CCC(=O)N1N=C(c2c(C)c3ccccc3[nH]c2=O)CC1c1ccc(OC)cc1` (stereo not drawn) [Example 11, 3-(5-(4-Methoxyphenyl)-1-propionyl-4,5-dihydro-1H-pyrazol-3-yl)-4-methylquinolin-2(1H)-one], ≥ 50%.

The assay is the same for the next values; noted with them: Homo sapiens, MDA-MB-231, 216 h, MDAMB231 cell line, 9 day treatment, separated enantiomers A/B (Table 3).
For `CCC(=O)N1N=C(c2c(C)c3ccsc3[nH]c2=O)CC1c1ccc(OC)cc1` (single isomer, unassigned) [Example 20A], the inhibition at 10 µM was ≥ 50%.
Same read-out and setting: then `CCC(=O)N1N=C(c2c(C)c3ccsc3[nH]c2=O)CC1c1ccc(Cl)cc1` (single isomer, unassigned) [Example 28B], with ≥ 50%; and `CCC(=O)N1N=C(c2c(C)c3ccsc3[nH]c2=O)CC1c1ccsc1` (single isomer, unassigned) [Example 33B], with < 50%.
With `CCC(=O)N1N=C(c2c(C)c3ccsc3[nH]c2=O)CC1c1ccc(C)cc1` (single isomer, unassigned) [Example 37B], the inhibition at 10 µM was ≥ 50%.
On the same count and under the same terms, for `CCC(=O)N1N=C(c2c(C)c3ccsc3[nH]c2=O)CC1c1ccc(C)nc1` (single isomer, unassigned) [Example 45B] the value was ≥ 50%; for `CCC(=O)N1N=C(c2c(C)c3ccccc3[nH]c2=O)CC1c1ccc(C)cc1` (single isomer, unassigned) [Example 60B], ≥ 50%; for `CCC(=O)N1N=C(c2c(C)c3ccsc3[nH]c2=O)CC1c1ccc(C)cc1F` (single isomer, unassigned) [Example 66A], ≥ 50%.
Still for that read-out and setting: then `CCC(=O)N1N=C(c2c(C)c3ccncc3[nH]c2=O)CC1c1ccc(C)cc1` (single isomer, unassigned) [Example 74A], with ≥ 50%.
Still for that read-out and setting: then `CCC(=O)N1N=C(c2c(C)c3ccnc(C)c3[nH]c2=O)CC1c1ccc(C)cc1` (single isomer, unassigned) [Example 78A], with < 50%; and `CCC(=O)N1N=C(c2c(C)c3ccc(Cl)cc3[nH]c2=O)CC1c1ccc(C)cc1` (single isomer, unassigned) [Example 80A], with < 50%.
Regarding `CCC(=O)N1N=C(c2c(C)c3ccc(N4CCN(C)CC4)cc3[nH]c2=O)CC1c1ccc(C)cc1` (single isomer, unassigned) [Example 82A], the inhibition at 10 µM is ≥ 50%.
Still for that read-out and setting: then `CCC(=O)N1N=C(c2c(C)c3ccccc3[nH]c2=O)C[C@@H]1c1ccc(C)cc1` (stereo in doubt) [Example 60A, rel-(R)-4-methyl-3-(1-propionyl-5-(p-tolyl)-4,5-dihydro-1H-pyrazol-3-yl)quinolin-2-(1H)-one], with ≥ 50%.

Still in this assay, the particulars now being: MDAMB231 cell line, 9 day treatment, separated enantiomers A/B (Table 3), 10 µM.
Turning to `CCC(=O)N1N=C(c2c(C)c3ccsc3[nH]c2=O)CC1c1ccc(C)nc1` (single isomer, unassigned) [Example 45A], the “% inhibition @ 10 μM” value is listed as “++ (<50% ++)”.
On to `CCC(=O)N1N=C(c2c(C)c3ccnc(C)c3[nH]c2=O)CC1c1ccc(C)cc1` (single isomer, unassigned) [Example 78B], for which the “% inhibition @ 10 μM” value is given as “+ (≥50% +)”.
Same read-out and setting: then `CCC(=O)N1N=C(c2c(C)c3ccc(Cl)cc3[nH]c2=O)CC1c1ccc(C)cc1` (single isomer, unassigned) [Example 80B], with “+ (≥50% +)”.

For the origin of these results see patent US20250145601A1, “NOVEL BICYCLIC COMPOUNDS AS RAD51 INHIBITORS” (SATYA THERAPEUTICS, INC., priority 2022, published 2025).
